Legend:
Experiment in all cases: kinome screen (33PanQinase)
Assay type in all cases: biochemical
CDK12/CycK = target: T1, CDK12/CycK (Homo sapiens, UniProt Q9NYV4)
T1 construct: purchased Reaction Biology Europe GmbH (formerly ProQinase)
Experimental: (§1) The Kinome Screening was performed by Reaction Biology Europe GmbH (http://reactionbiology.com; Freiburg i. Br., Germany).

CDK9/CycK = target: T2, CDK9/CycK (Homo sapiens, UniProt P50750)
T2 construct: purchased Reaction Biology Europe GmbH (formerly ProQinase)
Experimental: as §1

EPHA3 = target: T3, EPHA3 (Homo sapiens, UniProt P29320)
T3 construct: purchased Reaction Biology Europe GmbH (formerly ProQinase)
T3 sequence (P29320 21-983): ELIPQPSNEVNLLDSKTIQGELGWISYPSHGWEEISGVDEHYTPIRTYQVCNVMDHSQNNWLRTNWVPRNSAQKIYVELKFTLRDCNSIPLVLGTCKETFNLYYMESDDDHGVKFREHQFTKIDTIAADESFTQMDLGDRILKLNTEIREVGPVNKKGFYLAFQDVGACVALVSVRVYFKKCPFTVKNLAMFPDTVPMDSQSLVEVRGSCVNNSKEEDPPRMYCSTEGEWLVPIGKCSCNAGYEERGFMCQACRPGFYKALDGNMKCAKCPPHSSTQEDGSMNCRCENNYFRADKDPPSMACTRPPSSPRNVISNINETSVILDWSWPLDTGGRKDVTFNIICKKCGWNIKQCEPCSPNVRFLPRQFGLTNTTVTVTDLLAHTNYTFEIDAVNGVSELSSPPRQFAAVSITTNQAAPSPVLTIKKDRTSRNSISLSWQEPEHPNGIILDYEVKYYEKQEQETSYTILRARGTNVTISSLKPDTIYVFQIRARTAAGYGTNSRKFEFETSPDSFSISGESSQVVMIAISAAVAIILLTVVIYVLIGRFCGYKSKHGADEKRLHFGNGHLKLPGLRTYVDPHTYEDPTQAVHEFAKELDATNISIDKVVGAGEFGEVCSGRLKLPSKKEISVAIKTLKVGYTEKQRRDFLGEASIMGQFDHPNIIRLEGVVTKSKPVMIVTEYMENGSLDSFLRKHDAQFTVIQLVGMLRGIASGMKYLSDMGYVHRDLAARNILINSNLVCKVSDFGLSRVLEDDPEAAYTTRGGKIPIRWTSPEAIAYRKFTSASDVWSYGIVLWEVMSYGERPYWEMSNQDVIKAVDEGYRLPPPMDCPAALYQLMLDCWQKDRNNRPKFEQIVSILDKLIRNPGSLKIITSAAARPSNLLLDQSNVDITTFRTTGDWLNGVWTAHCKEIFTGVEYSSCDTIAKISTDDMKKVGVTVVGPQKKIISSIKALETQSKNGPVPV
Experimental: as §1

HIPK3 = target: T4, HIPK3 (Homo sapiens, UniProt Q9H422)
T4 construct: purchased Reaction Biology Europe GmbH (formerly ProQinase)
Experimental: as §1

IGF1R = target: T5, IGF1R (Homo sapiens, UniProt P08069)
T5 construct: purchased Reaction Biology Europe GmbH (formerly ProQinase)
Experimental: as §1

IRAK1 = target: T6, IRAK1 (Homo sapiens, UniProt P51617)
T6 construct: purchased Reaction Biology Europe GmbH (formerly ProQinase)
Experimental: as §1

MINK1 = target: T7, MINK1 (Homo sapiens, UniProt Q8N4C8)
T7 construct: purchased Reaction Biology Europe GmbH (formerly ProQinase)
Experimental: as §1

NEK3 = target: T8, NEK3 (Homo sapiens, UniProt P51956)
T8 construct: purchased Reaction Biology Europe GmbH (formerly ProQinase)
T8 sequence (P51956 1-506): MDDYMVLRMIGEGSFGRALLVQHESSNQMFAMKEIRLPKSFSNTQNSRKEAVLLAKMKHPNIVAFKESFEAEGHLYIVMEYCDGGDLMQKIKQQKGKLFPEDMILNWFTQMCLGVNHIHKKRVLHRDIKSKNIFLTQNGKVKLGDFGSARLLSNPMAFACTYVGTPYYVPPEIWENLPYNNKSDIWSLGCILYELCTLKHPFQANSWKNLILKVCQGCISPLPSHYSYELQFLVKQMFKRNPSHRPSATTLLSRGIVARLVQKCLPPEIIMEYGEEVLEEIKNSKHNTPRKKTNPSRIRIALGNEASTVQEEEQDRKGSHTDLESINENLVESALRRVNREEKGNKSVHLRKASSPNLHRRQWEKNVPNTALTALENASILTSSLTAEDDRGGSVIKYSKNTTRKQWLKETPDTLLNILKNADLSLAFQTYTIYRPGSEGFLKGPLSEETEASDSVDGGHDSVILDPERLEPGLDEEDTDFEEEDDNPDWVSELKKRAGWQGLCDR
Experimental: as §1

NEK7 = target: T9, NEK7 (Homo sapiens, UniProt Q8TDX7)
T9 construct: purchased Reaction Biology Europe GmbH (formerly ProQinase)
Experimental: as §1

PBK = target: T10, PBK (Homo sapiens, UniProt Q96KB5)
T10 construct: purchased Reaction Biology Europe GmbH (formerly ProQinase)
T10 sequence (Q96KB5 1-322): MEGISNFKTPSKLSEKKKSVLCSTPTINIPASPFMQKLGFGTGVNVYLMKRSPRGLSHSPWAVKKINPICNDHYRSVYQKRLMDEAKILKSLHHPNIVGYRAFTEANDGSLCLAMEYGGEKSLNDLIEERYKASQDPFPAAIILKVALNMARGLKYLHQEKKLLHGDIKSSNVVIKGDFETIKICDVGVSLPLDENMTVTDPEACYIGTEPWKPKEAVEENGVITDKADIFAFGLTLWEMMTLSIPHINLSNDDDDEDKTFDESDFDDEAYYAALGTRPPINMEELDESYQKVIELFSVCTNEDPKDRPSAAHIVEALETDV
Experimental: as §1

PKCϴ = target: T11, PKCϴ (Homo sapiens, UniProt Q04759)
T11 construct: purchased Reaction Biology Europe GmbH (formerly ProQinase)
Experimental: as §1

TGFBR2 = target: T12, TGFBR2 (Homo sapiens, UniProt P37173)
T12 construct: purchased Reaction Biology Europe GmbH (formerly ProQinase)
Experimental: as §1

T2 sequence (P50750 whole entry): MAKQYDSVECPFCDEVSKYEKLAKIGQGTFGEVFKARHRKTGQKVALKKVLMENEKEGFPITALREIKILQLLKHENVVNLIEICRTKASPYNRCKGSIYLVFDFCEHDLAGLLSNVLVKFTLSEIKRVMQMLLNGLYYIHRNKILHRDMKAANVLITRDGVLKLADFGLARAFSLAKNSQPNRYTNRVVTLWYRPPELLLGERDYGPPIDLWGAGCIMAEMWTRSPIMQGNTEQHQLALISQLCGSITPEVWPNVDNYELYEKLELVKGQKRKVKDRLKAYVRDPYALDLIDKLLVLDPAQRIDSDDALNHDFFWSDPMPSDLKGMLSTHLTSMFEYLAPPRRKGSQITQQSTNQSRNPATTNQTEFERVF
T2 sequence (O75909 whole entry partner): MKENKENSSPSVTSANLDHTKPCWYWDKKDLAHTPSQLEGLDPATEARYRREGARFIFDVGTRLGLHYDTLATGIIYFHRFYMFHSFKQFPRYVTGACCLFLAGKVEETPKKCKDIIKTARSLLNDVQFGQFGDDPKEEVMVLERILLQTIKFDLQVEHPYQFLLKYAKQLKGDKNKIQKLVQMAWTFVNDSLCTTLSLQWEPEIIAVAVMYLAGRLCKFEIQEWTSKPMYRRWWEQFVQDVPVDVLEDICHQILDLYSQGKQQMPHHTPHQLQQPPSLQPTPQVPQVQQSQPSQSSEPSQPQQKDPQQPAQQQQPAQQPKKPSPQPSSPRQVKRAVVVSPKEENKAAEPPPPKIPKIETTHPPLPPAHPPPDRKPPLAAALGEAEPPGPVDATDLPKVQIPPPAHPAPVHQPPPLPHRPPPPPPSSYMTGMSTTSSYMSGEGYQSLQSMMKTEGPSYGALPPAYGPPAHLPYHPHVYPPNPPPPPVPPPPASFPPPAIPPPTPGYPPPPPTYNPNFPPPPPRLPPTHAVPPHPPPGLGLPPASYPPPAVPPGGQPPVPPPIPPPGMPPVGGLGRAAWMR
T7 sequence (Q8N4C8 whole entry): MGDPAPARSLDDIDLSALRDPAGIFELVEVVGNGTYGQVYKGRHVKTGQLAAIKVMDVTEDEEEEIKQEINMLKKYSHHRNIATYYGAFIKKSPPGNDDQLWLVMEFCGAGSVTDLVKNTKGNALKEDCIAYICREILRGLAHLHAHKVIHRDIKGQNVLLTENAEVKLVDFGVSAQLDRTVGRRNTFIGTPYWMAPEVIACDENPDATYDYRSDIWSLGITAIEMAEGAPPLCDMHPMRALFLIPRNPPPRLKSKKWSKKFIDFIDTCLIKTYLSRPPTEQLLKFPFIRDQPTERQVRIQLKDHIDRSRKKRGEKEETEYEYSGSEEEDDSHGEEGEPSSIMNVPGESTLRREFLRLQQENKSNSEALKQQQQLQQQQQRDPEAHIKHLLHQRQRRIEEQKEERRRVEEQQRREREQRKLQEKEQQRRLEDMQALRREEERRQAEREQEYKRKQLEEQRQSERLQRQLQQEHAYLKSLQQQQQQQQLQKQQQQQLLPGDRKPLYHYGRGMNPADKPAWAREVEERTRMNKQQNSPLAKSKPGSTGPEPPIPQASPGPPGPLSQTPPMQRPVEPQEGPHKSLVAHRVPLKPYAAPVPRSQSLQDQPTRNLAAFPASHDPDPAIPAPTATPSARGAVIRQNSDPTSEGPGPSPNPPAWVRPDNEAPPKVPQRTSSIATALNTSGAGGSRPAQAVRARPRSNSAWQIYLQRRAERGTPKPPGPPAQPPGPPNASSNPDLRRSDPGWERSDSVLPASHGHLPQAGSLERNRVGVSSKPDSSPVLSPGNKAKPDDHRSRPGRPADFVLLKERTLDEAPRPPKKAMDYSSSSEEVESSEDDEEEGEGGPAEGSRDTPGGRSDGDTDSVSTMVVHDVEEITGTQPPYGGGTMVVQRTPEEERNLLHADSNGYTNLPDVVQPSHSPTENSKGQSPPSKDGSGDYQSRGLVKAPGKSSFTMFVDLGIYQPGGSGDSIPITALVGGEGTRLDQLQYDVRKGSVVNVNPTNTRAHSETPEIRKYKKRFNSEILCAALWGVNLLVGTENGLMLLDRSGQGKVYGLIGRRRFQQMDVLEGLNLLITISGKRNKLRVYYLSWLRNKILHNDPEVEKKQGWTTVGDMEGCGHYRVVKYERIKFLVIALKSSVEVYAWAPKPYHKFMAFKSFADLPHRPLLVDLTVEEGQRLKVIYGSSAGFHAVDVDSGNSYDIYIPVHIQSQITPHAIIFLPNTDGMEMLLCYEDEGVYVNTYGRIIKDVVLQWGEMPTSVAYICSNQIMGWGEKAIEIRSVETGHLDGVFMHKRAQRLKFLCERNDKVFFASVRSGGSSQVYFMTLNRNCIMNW
T5 sequence (P08069 31-1367): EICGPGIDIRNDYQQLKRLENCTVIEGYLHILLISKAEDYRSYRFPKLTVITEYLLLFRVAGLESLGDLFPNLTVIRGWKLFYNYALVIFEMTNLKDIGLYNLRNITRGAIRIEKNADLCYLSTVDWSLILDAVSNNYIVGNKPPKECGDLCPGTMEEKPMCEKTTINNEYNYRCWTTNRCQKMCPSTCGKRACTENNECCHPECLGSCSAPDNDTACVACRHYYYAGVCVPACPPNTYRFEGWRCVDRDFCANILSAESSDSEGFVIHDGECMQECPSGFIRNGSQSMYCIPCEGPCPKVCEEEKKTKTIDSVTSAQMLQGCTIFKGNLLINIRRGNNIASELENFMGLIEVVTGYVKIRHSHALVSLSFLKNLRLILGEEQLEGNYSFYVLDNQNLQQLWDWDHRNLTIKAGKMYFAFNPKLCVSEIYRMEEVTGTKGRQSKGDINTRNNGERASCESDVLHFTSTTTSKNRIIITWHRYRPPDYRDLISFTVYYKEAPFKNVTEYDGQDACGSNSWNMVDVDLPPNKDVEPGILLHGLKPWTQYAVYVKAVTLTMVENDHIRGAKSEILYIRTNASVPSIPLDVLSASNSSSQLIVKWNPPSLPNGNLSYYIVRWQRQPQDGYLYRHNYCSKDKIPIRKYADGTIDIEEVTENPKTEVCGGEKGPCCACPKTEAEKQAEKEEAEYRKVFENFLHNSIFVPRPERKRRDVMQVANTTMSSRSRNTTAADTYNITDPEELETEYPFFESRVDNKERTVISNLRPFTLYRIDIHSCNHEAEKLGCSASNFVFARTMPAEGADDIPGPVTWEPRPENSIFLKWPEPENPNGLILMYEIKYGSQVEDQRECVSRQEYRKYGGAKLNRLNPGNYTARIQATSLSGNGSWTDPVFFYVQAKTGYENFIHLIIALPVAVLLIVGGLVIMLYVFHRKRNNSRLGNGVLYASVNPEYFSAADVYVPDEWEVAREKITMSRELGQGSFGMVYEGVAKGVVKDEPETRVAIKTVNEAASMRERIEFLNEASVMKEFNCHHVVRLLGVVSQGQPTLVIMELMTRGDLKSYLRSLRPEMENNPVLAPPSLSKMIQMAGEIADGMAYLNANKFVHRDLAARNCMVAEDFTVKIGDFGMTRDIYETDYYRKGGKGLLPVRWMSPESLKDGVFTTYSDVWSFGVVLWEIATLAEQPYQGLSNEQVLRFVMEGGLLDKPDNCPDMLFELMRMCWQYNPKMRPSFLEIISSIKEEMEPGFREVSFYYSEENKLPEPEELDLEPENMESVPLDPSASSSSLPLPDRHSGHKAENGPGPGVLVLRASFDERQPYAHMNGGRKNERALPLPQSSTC
T4 sequence (Q9H422 whole entry): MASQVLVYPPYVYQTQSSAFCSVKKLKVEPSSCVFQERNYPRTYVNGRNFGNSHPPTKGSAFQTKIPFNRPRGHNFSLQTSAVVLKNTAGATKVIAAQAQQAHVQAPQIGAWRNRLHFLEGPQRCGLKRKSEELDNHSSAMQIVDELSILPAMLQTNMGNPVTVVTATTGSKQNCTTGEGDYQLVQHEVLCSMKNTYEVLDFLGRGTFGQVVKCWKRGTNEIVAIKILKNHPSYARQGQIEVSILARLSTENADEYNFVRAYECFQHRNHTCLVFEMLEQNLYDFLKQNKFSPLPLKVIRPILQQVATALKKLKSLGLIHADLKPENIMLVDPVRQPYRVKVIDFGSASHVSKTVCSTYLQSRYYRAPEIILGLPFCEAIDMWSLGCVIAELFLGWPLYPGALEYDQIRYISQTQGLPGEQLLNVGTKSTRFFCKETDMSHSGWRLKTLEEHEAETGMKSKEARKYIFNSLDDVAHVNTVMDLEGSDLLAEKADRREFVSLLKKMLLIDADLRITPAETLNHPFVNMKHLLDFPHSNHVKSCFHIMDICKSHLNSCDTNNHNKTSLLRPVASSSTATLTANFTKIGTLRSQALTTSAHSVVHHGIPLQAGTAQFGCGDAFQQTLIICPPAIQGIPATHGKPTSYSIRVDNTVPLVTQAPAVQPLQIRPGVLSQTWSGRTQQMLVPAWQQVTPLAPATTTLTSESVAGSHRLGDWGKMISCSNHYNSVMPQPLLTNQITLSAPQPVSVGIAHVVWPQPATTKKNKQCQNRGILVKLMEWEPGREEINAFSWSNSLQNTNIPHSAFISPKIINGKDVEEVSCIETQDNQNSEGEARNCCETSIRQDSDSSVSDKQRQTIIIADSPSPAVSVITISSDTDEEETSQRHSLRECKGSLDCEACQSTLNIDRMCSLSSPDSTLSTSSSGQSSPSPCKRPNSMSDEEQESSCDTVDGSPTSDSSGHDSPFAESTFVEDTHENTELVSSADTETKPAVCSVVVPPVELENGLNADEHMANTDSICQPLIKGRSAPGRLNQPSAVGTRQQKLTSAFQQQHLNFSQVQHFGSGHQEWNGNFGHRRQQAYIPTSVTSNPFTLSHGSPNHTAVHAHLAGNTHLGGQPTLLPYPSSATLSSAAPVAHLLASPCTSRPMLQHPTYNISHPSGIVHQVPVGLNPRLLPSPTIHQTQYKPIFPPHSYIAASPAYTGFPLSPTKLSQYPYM

Compound	residual kinase activity (CDK12/CycK; 0.3 µM)	residual kinase activity (CDK9/CycK; 0.3 µM)	residual kinase activity (EPHA3; 0.3 µM)	residual kinase activity (HIPK3; 0.3 µM)	residual kinase activity (IGF1R; 0.3 µM)	residual kinase activity (IRAK1; 0.3 µM)	residual kinase activity (MINK1; 0.3 µM)	residual kinase activity (NEK3; 0.3 µM)	residual kinase activity (NEK7; 0.3 µM)	residual kinase activity (PBK; 0.3 µM)	residual kinase activity (PKCϴ; 0.3 µM)	residual kinase activity (TGFBR2; 0.3 µM)	further results
COc1ccnc2[nH]cc(-c3cc(N)nc(N)c3)c12 [meriolin 16]	1 % of control	0 % of control	94 % of control	7 % of control	99 % of control	76 % of control	20 % of control	78 % of control	96 % of control	90 % of control	7 % of control	85 % of control	residual kinase activity (CDK12/CycK; 0.03 µM): 21 % of control; residual kinase activity (CDK9/CycK; 0.03 µM): 7 % of control; residual kinase activity (EPHA3; 0.03 µM): 102 % of control; residual kinase activity (HIPK3; 0.03 µM): 53 % of control; residual kinase activity (IGF1R; 0.03 µM): 116 % of control; residual kinase activity (IRAK1; 0.03 µM): 95 % of control; residual kinase activity (MINK1; 0.03 µM): 75 % of control; residual kinase activity (NEK3; 0.03 µM): 96 % of control; residual kinase activity (NEK7; 0.03 µM): 111 % of control; residual kinase activity (PBK; 0.03 µM): 95 % of control; residual kinase activity (PKCϴ; 0.03 µM): 40 % of control; residual kinase activity (TGFBR2; 0.03 µM): 109 % of control
c1ccc(CNc2cc(-c3c[nH]c4ncccc34)ccn2)cc1 [meriolin 36]	1 % of control	2 % of control	111 % of control	45 % of control	128 % of control	49 % of control	2 % of control	94 % of control	103 % of control	69 % of control	2 % of control	72 % of control	residual kinase activity (CDK12/CycK; 3 µM): 2 % of control; residual kinase activity (CDK9/CycK; 3 µM): 0 % of control; residual kinase activity (EPHA3; 3 µM): 103 % of control; residual kinase activity (HIPK3; 3 µM): 11 % of control; residual kinase activity (IGF1R; 3 µM): 83 % of control; residual kinase activity (IRAK1; 3 µM): 9 % of control; residual kinase activity (MINK1; 3 µM): 0 % of control; residual kinase activity (NEK3; 3 µM): 79 % of control; residual kinase activity (NEK7; 3 µM): 107 % of control; residual kinase activity (PBK; 3 µM): 80 % of control; residual kinase activity (PKCϴ; 3 µM): 1 % of control; residual kinase activity (TGFBR2; 3 µM): 24 % of control

Reference: article PMC11167047 (Cell Death Discovery, 2024)
